Measurements: patent US6365414B1, “Vitro system for determining formation of Aβ amyloid” (The General Hospital Corporation, priority 1994, dated 2002)
Where two headings read alike, the source gives them in different places.

What was measured:
[1] = ^65Zn^2+ dot-blot binding to immobilized Aβ peptides (Scatchard / competition); conditions: for zinc binding (in words): dot-blot or blot of tryptic digest, ^65Zn^2+
Experimental: ^65Zn^2+ Binding Studies—Dissolved peptides (1.2 nMol, unless otherwise stated) were dot-blotted onto 0.2-μm polyvinylidene difluoride membrane (Pierce Chemical Co.), washed twice with chelating buffer (200 μl×100 mM NaCl, 20 mM Tris-HCl, 1 mM EDTA, pH 7.4), then five times with blocking buffer (200 μl×100 mM NaCl, 20 mM Tris-HCl, 1 mM MnCl2, pH 7.4), and then incubated (60 min, 20° C.) with ^65Zn (unless otherwise stated 130,000 cpm, […] ^65ZnCl2 in 200 μl of blocking buffer±competing metal ion chloride). The dot-blot was then washed with blocking buffer (5×200 μl), the dot excised, placed in a test tube, and assayed by γ-counting (11% efficiency). The equilibration volume for stoichiometry estimates was regarded as 6×200 μl. The 214 nm UV absorbance of the unbound flow-through was assayed to determine the total amount of peptide remaining bound onto the membrane. […] To alter the pH, the ^65Zn incubation was carried out in the presence of 100 mM buffer: MOPS (pH 6.5-7.0), MES (pH 5.0-6.0), acetate (pH 3.5-4.5). The dot-blot apparatus was washed with detergent and EDTA (50 mM) then rinsed and siliconized between use.
Aliquots of Aβ were incubated (60 min) with ^65Zn^2+ in the presence of varying concentrations of unlabeled Zn^2+ (0.01-50 μM total). Values shown are means±S.D., n≧3. […] (FIG. 1b) depicts specificity of the Zn^2+ binding site for various metals. Aβ was incubated (60 min) with ^65Zn^2+ (157 nM, 138,000 cpm) and competing unlabeled metal ions (50 μM total). […] Percent binding of total counts ^65Zn^2+/min added is corrected for the amounts (in nanomoles) of peptides adhering to the membrane. (FIG. 1d) depicts as for 1a, with Aβ1-28 peptide substituting for Aβ1-40. 157 nM ^65Zn (138,000 cpm) is used in this experiment to probe immobilized peptide (1.6 nmol). (FIG. 1e) depicts pH dependence of […] binding to Aβ1-40.

Aβ1-40 = target: T1, Aβ1-40 (Homo sapiens, UniProt P05067); test: Tryptic digestion of Aβ1-40 after incubation with Zn^2+; assay type: biochemical
T1 construct: Aβ1-40 (13.9 μg) was incubated with; purchased Bachem; Sigma (also synthesized by the W. M. Keck Foundation laboratory, Yale); host or cells: chemical synthesis
Experimental: Tryptic Digestion of Aβ-Aβ1-40 (13.9 μg) was incubated with Zn^2+ (12 μl in blocking buffer, 1 h, 37° C.) and then digested with trypsin (12 ng, 3 h, 37° C.). The reaction was stopped by adding SDS sample buffer containing phenylmethylsulfonyl fluoride (1 mM), boiling the samples (5 min), and applying the samples to Tris/Tricine gel electrophoresis and transfer. The blot was washed with EDTA, Coomassie-stained, incubated with ^65Zn^2+, individual bands were excised, assayed for ^65Zn^2+ binding, and N-terminal sequenced to confirm the identity of the digestion products.
The blot in 4a was incubated with ^65Zn^2+, the visible bands excised, and the bound counts for each band determined.

Aβ [2] = target: T2, Aβ (Homo sapiens, UniProt P05067); test: G50 gel filtration chromatography of Aβ with metal ions or EDTA; conditions: for less total peptide eluted compared with EDTA profile / effect on Aβ recoverable by chromatography (in words): metal 25 μM
T2 construct: purchased Bachem; Sigma (also synthesized by the W. M. Keck Foundation laboratory, Yale); host or cells: chemical synthesis
Experimental: Aβ was stored in aliquots of 0.52 mg/ml in water at −20° C., then kept at 4° C. when thawed. Reagents were mixed without vortex mixing. The incubated Aβ was directly applied to a G50 SF (Pharmacia, Uppsala, Sweden) column (Bio-Rad Econo-Column, 30×0.7 cm) pre-equilibrated with metal salt solution or EDTA (50 μM) in TBS at 20° C. and eluted at 8 ml/h (Wiz peristaltic pump, Isco, Lincoln, Nebr.). Absorbance was measured at 254 and 214 nm (Type 6 optical unit, Isco). The amount of Aβ eluting at various peaks was estimated from the area under the curve. […] Because the sample eluted in a volume of approximately 15 ml, the average concentration of the peptide on the column was 0.8 μM.
To study the effects of protein blocking upon adsorption of Aβ to the chromatography column, a Sephadex G50 SF column which had been characterized previously for Aβ behavior was eluted with 3% bovine serum albumin (BSA) in TBS (50 ml) and equilibrated with non-BSA-containing buffer, subsequent to repeating the Aβ experiments.
The elution points of molecular mass standards and relative assignments of Aβ peak elutions are indicated. Mass standards were blue dextran (2×10^6 kDa, V0=void volume), BSA (66 kDa), carbonic anhydrase (29 kDa), cytochrome c (12.4 kDa), and aprotinin (6.5 kDa). The mass of Aβ is 4.3 kDa. […] Data for experiments performed in the presence of copper were taken from 214 nm readings and corrected for comparison.

Aβ [3] = target: T2, Aβ; test: SDS Tris/Tricine gel electrophoresis of Aβ incubated with Zn^2+; conditions: Zn^2+ 200 μM, 1-24 h, 20° C.
Experimental: To further test whether zinc induces irreversible precipitation of Aβ in the absence of kaolin, Aβ incubated with Zn^2+ (200 μM, 1-24 h, 20° C.) was subjected to SDS Tris/Tricine gel electrophoresis.

[4] = human, in vivo
[5] = Aβ binding to kaolin (aluminum silicate); assay type: physicochemical; conditions: metal 25 μM
Experimental: Aβ Binding to Kaolin (Aluminum Silicate)—Kaolin suspension was prepared in high performance liquid chromatography water (Fisher), defined, and adjusted to 50% (v/v). Aβ (40 μg) was incubated in siliconized reaction vessels with either kaolin or Sephadex G50 SF (10 μl×50% (v/v)) in Cu^2+, Zn^2+, or EDTA (100 μl in TBS, 5 min, room temperature). The suspension was then pelleted (1500×g, 3 min) and the supernatant removed and diluted 20-fold with water to bring the UV absorbance readings into the linear range. Samples were assayed at 214 nm before and after incubation with kaolin or Sephadex.
(FIG. 3a) depicts concentration (by 214 nm absorbance) of Aβ remaining in supernatant after incubation with 10 mg of G50 Sephadex. (FIG. 3b) depicts concentration (by 214 nm absorbance) of Aβ remaining in supernatant after incubation with 10 mg of kaolin, expressed as percent of the starting absorbance.

trypsin = test: Trypsin activity, Z-Arg-amido-4-methylcoumarin cleavage; assay type: biochemical
[6] = centrifugation studies; cited from earlier work
[7] = neutral pH; cited from earlier work
[8] = Tinctorial amyloid formation (Congo Red, polarized light); assay type: physicochemical
Experimental: Zinc-induced tinctorial amyloid formation. […] Unbound dye was removed, the pellet washed with buffer 1 (100 mM NaCl, 20 mM Tris-HCl, pH 7.4) and mounted for microscopy.
Unbound dye was removed, the pellet washed with buffer 1 (100 mM NaCl, 20 mM Tris-HCl, pH 7.4) and mounted for microscopy.

[9] = Size estimation of Aβ aggregates with filters of various pore sizes, ^65Zn tracer, EDTA wash; assay type: physicochemical
Experimental: FIGS. 7a, 7b, 7c and 7d. Size estimation of zinc-induced Aβ aggregates. […] By determining the amounts of Aβ1-40 and ^65Zn in the filtrate, the quantities retarded by the filters could be determined, and the stoichiometry of the zinc: Aβ assemblies estimated. (7d) Bar graph. […] The amounts of zinc-precipitated Aβ1-40 resolubilized in the filtrate fraction were determined by OD214, and expressed as a percentage of the amount originally retained by the respective filters. ^65Zn released into the filtrate was measured by γ-counting.
By determining the amounts of Aβ1-40 and ^65Zn in the filtrate, the quantities retarded by the filters could be determined, and the stoichiometry of the zinc: Aβ assemblies estimated. […] The amounts of zinc-precipitated Aβ1-40 resolubilized in the filtrate fraction were determined by OD214, and expressed as a percentage of the amount originally retained by the respective filters. ^65Zn released into the filtrate was measured by γ-counting.

T2 sequence (P05067 672-711 limits assumed): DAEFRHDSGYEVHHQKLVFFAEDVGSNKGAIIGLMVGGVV
T1 sequence (P05067 672-711 limits assumed): as above

For “6-40: 3.6 kDa tryptic digestion product of Aβ1-40”, the “zinc binding (in words)” value [1] was “binds zinc”.
For “17-40: 2.1 kDa tryptic digestion product of Aβ1-40, post-secretase carboxyl-terminal product (LVFFAEDVGSNKGAIIGLMVGGVV; Amyloid-beta protein 40; UniProt P05067 688-711, looked up, fragment) [reference compound]”, the “effect of zinc on the rate of tryptic digestion of the peptide” value (Aβ1-40; increasing zinc concentrations) was “not inhibited by increasing zinc concentrations” and the “zinc binding (in words)” value [1] was “does not bind zinc”.
In the case of “25-35: Aβ fragment covering a region of the carboxyl terminus, residues 25-35 (GSNKGAIIGLM; Amyloid-beta protein 40; UniProt P05067 696-706, looked up, fragment)”, the “zinc binding (in words)” value [1] is reported as “unable to bind zinc”.
In the case of `[Ag+2]` [Ag^2+], the “less total peptide eluted compared with EDTA profile” value (Aβ [2]) is reported as 40%.
For `[Al+3]` [Al^3+], the “effect on Aβ recoverable by chromatography (in words)” value (Aβ [2]) was “partial effects on Aβ solubility comparable with 3 μM total Zn^2+”.
With `[Ba+2]` [Ba^2+] the “less total peptide eluted compared with EDTA profile” value (Aβ [2]) was 40%.
In the case of `[Ca+2]` [Ca^2+], the “less total peptide eluted compared with EDTA profile” value (Aβ [2]) is reported as 40%.
For `[Cu+2]` [Cu^2+], the Aβ dimerization (Aβ [2]; 25 μM total) was “dramatic increase in Aβ dimerization”.
In the case of `[Mg+2]` [Mg^2+], the “less total peptide eluted compared with EDTA profile” value (Aβ [2]) is reported as 40%.
With `[Pb+2]` [Pb^2+] the “effect on Aβ recoverable by chromatography (in words)” value (Aβ [2]) was “most strongly promotes the elution of the monomeric peptide, abolishing high order polymers”.
With `NC(CO)(CO)CO` [Tris] the “abolition of ^65Zn^2+ binding to Aβ” value ([1]; 150 mM Tris) was “≈ 50%” and the “abolition of ^65Zn^2+ binding to Aβ” value ([1]; 500 mM Tris) was “≈ 95%”.
In the case of `[Zn+2]` [Zn^2+], the “covalent or SDS-resistant polymerization of Aβ” value (Aβ [3]) is reported as “does not induce covalent or SDS-resistant polymerization of Aβ”, the “induction of aggregation of human Aβ1-40 by metal ions” value (metal ions 3 μM, Aβ1-40 […]) is reported as “the only one of several metal ions tested on an equimolar basis, including Al^3+, to induce significant aggregation of human Aβ1-40” and the “Aβ eluting from the column” value (Aβ [2]; 25 μM total Zn^2+) is reported as < 20%. For the same molecule, the “lowest total concentration that decreases recoverable Aβ” value (Aβ [2]; compared with EDTA profile) was 0.4 µM, the “inhibition of tryptic Aβ hydrolysis” value (Aβ1-40; 200 μM Zn^2+) was “complete inhibition of Aβ hydrolysis” and the “effect on cognition of age-matched control subjects” value [4] was “remained unaffected by the dose”. The reversibility of changes [4] was “rapidly reversible following cessation of the four day supplementation”, the “time to acute decline in cognition” value [4] was “forty-eight” and the “drop in Mini-Mental State Examination scores” value ([4]; po) was 31%. For the same molecule, the “effect on kaolin-induced Aβ precipitation relative to EDTA” value [5] was “nearly half of the amount recovered from the EDTA incubation supernatant”, the “inhibition of tryptic activity” value (trypsin; 200 μM) was 12% and the “effect on the activity of trypsin” value (trypsin; up to 100 μM in TBS) was “negligible”. The “competition of unlabeled metal ions for ^65Zn^2+ label on Aβ” value ([1]; competing metal 50 μM total, ^65Zn^2+ 157 nM) was “the only unlabeled metal ion tested that is capable of competing off the label”.
With Aβ1-28: Aβ fragment, residues 1-28 the “^65Zn^2+ binding compared with Aβ1-40” value ([1]; ^65Zn^2+ 74 nM, FIG. 1c) was 30 % of Bmax.
In the case of “^125I-Aβ1-40: human Aβ1-40 tracer iodinated on the tyrosine residue at position 10”, the “Zn^2+ concentration required to precipitate the peptide” value [6] is given as 1 mM.
With “gln11: Aβ1-28 where residue 11 is glutamine (DAEFRHDSGYQVHHQKLVFFAEDVGSNK; Amyloid-beta protein 40; UniProt P05067 672-699, looked up, variant E11Q)” the “zinc binding (in words)” value [1] was “does not interfere with ^65Zn^2+ binding”.
In the case of “insulin: peptide whose zinc binding properties are well characterized”, the “stoichiometric ratio Zn^2+:insulin at which the peptide precipitates” value [7] is listed as > 0.33.
In the case of “rat Aβ1-40: rat/mouse species of Aβ1-40; Arg→Gly, Tyr→Phe and His→Arg at positions 5, 10 and 13 (DAEFGHDSGFEVRHQKLVFFAEDVGSNKGAIIGLMVGGVV; Amyloid-beta protein 40; UniProt P08592 672-711, looked up)”, the “Zn^2+ concentration that induces amyloid by tinctorial criteria” value [8] is reported as ≥ 10 µM, the “Congo Red-stained material after incubation with EDTA” value ([8]; EDTA 50 μM instead of Zn^2+) is reported as “In neither case was Congo Red-stained material detected” and the “tinctorial amyloid formation (in words)” value ([8]; Zn^2+ 25 μM, 30 min, 37° C.) is reported as “significantly fewer and smaller particles, with minimal birefringence”. The “peptide aggregated into >0.2μ particles” value (EDTA, higher peptide concentrations) was “≈ 15%”, the “peptide aggregated into >0.2μ particles” value (EDTA, peptide 0.8 μM) was “no detectable aggregation” and the “peptide aggregated into >0.2μ particles” value (Zn^2+ 25 μM, peptide 0.8 μM) was “no aggregation”. For the same molecule, the “peptide aggregated into >0.2μ particles” value (Zn^2+ 25 μM, peptide 4 μM) was 25%, the “increase of >0.1μ particles following incubation with Zn^2+” value ([9]; Zn^2+ 25 μM versus EDTA) was 20% and the “increase of >0.22μ particles following incubation with Zn^2+” value ([9]; Zn^2+ 25 μM versus EDTA) was 30%. For the same molecule, the “proportion as >0.65μ particles” value ([9]; Zn^2+ 25 μM, peptide […]) was “increased only slightly”.
